One test has as its target T1, full-length human BTK (Homo sapiens, UniProt Q06187).
T1 construct: 2.5× stocks of full-length human BTK (08-080); purchased CarnaBio USA, Inc., Natick, Mass; 08-080
As to the kind of experiment: Assay A: BTK IC50 Enzyme Assay (microfluidic off-chip mobility shift kinase assay). The format is biochemical. The note with it: full-length human BTK, kinKDR peptide substrate, incubated 90 min at 27 C; read-out: Assay A (Time Dependent BTK Enzyme Assay IC50). In a few lines: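 Off-chip microfluidic mobility shift assay with full-length human BTK; phosphorylated and unphosphorylated peptide substrate were separated by charge/mass on a LabChip 3000.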

The next test has as its system PBMC. Briefly: Assay B: Time Dependent PMBC IC50 Assay. Type of test: cell-based. The protocol: Assay B: Time Dependent PMBC IC50 Assay
Compounds described by embodiments of the present invention were assayed using a time dependent PMBC assay. The data from the same is recorded in Table 2 within the column labeled: “Time Dependent PBMC Assay IC50.” These IC50 values are reported in ranges wherein: I<1 uM and II>1 uM.

The next test has as its target T2, BTK in human whole blood (Homo sapiens, UniProt Q06187).
T2 construct: endogenous in cells; host or cells: human whole blood
As to the kind of experiment: Assay C: Time Dependent Human Whole Blood IC50 Assay. The format is cell-based. The following applies: read-out: Assay C (Time Dependent Human Whole Blood BTK Enzyme Assay IC50). Here is the method: Assay C: Time Dependent Human Whole Blood IC50 Assay
Compounds described by embodiments of the present invention were assayed using a human whole blood assay. The data from the same is recorded in Table 2 within the column labeled: “Time Dependent Human Whole Blood BTK Enzyme Assay IC50”.

T2 sequence (Q06187 whole entry): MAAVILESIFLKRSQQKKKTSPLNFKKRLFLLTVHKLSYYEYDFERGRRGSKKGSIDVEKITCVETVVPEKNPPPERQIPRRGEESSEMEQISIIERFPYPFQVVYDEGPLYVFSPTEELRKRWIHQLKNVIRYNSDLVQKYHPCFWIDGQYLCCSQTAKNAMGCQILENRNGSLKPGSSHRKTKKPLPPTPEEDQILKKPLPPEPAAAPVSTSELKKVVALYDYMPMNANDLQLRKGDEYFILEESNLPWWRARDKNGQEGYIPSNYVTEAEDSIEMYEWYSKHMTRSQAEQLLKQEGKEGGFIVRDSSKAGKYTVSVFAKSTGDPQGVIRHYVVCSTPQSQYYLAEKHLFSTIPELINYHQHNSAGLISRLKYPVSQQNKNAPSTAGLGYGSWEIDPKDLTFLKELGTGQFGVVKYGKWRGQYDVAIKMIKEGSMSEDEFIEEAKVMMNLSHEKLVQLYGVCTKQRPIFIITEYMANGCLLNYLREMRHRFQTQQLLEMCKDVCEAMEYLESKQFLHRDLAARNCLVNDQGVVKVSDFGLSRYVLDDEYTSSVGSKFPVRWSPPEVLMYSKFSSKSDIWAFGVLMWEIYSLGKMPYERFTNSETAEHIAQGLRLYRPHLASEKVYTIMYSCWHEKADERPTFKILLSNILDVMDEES
T1 sequence (Q06187 whole entry): as above

In general, IC50 refers to the concentration at which inhibition is half-maximal. For the compound `C=CC(=O)N[C@H]1CCN(c2ccc(C(N)=O)c(Nc3ccc(F)nc3)n2)C1` [Compound 46, 6-((S)-3-Acryloylamino-pyrrolidin-1-yl)-2-(6-fluoro-pyridin-3-ylamino)-nicotinamide], the figures for the IC50 at full-length human BTK, with PBMC and on BTK in human whole blood were less than 100 nM, less than 100 nM and 1000 to 5000 nM, respectively.

On to `C=CC(=O)N[C@H]1CCN(c2nc(Nc3ccc(C(=O)NC(C)(C)C)cc3)c(F)cc2C(N)=O)C1` [Compound 3, (S)-2-(3-acrylamidopyrrolidin-1-yl)-6-((4-(tert-butylcarbamoyl)phenyl)amino)-5-fluoronicotinamide], for which the IC50 at full-length human BTK, in the test with PBMC and on BTK in human whole blood was less than 100 nM in each case.

With `C=CC(=O)N1CC=C(c2ccc(C(N)=O)c(Oc3ccc(Oc4ccccc4)cc3)n2)CC1` [Compound 69, 1′-acryloyl-6-(4-phenoxyphenoxy)-1′,2′,3′,6′-tetrahydro-[2,4′-bipyridine]-5-carboxamide], the IC50 at full-length human BTK is less than 100 nM; with PBMC it was less than 100 nM; at BTK in human whole blood, 100 to 1000 nM.

For `C=CC(=O)NC1CN(c2ncc(C(N)=O)c(Oc3ccc(Oc4ccccc4)cc3)n2)C1` [Compound 174, 2-(3-Acryloylamino-azetidin-1-yl)-4-(4-phenoxy-phenoxy)-pyrimidine-5-carboxylic acid amide], the results for the IC50 on full-length human BTK, in the test with PBMC and on BTK in human whole blood were less than 100 nM, less than 100 nM and 100 to 1000 nM, respectively.

Values taken from US10329270B2, “Heteroaryl compounds as BTK inhibitors and uses thereof” (Merck Patent GmbH, priority 2013, dated 2019).
